In publication doi:10.1101/2023.07.03.547578v2 (bioRxiv, 2023):
Like-named read-outs stand apart in the source and are kept apart here.

Tests used:
[1] = target: T1, RyR2 (Sus scrofa, UniProt A0A5G2R1W3); experiment: [3H]ryanodine binding assay in cardiac SR vesicles; parameters: species or system porcine
[2] = In vivo pharmacokinetic study; parameters: species or system mouse; conditions: 3 mg/kg i.p.
[3] = tested on: Casq2-/- mice; experiment: Catecholamine-induced arrhythmia challenge; type: in vivo, mouse; conditions: 3 and 30 mg/kg i.p., ECG
[4] = Stability in plasma; type: in vitro ADME; conditions: abstract; method not given
[5] = ref Smith et al., 2021; cited from earlier work
[6] = target: T1, RyR2; conditions: read-out: IC50, ryanodine binding assay; ref Batiste et al., 2019; cited from earlier work
[7] = tested on: RyR2-mediated spontaneous Ca2+ release in Casq2-/- cardiomyocytes; conditions: read-out: IC50, intact cardiomyocyte assay; ref Batiste et al., 2019; cited from earlier work
[8] = mice; ref Blackwell et al., 2023; cited from earlier work
[9] = tested on: Casq2-/- mice; conditions: ref Blackwell et al., 2023, cited from earlier work
[10] = tested on: RyR2; conditions: ref Ohshiro et al., 2012; cited from earlier work
[11] = tested on: insect RyR; conditions: ref Ohshiro et al., 2012; cited from earlier work

T1 sequence (A0A5G2R1W3 20-4900): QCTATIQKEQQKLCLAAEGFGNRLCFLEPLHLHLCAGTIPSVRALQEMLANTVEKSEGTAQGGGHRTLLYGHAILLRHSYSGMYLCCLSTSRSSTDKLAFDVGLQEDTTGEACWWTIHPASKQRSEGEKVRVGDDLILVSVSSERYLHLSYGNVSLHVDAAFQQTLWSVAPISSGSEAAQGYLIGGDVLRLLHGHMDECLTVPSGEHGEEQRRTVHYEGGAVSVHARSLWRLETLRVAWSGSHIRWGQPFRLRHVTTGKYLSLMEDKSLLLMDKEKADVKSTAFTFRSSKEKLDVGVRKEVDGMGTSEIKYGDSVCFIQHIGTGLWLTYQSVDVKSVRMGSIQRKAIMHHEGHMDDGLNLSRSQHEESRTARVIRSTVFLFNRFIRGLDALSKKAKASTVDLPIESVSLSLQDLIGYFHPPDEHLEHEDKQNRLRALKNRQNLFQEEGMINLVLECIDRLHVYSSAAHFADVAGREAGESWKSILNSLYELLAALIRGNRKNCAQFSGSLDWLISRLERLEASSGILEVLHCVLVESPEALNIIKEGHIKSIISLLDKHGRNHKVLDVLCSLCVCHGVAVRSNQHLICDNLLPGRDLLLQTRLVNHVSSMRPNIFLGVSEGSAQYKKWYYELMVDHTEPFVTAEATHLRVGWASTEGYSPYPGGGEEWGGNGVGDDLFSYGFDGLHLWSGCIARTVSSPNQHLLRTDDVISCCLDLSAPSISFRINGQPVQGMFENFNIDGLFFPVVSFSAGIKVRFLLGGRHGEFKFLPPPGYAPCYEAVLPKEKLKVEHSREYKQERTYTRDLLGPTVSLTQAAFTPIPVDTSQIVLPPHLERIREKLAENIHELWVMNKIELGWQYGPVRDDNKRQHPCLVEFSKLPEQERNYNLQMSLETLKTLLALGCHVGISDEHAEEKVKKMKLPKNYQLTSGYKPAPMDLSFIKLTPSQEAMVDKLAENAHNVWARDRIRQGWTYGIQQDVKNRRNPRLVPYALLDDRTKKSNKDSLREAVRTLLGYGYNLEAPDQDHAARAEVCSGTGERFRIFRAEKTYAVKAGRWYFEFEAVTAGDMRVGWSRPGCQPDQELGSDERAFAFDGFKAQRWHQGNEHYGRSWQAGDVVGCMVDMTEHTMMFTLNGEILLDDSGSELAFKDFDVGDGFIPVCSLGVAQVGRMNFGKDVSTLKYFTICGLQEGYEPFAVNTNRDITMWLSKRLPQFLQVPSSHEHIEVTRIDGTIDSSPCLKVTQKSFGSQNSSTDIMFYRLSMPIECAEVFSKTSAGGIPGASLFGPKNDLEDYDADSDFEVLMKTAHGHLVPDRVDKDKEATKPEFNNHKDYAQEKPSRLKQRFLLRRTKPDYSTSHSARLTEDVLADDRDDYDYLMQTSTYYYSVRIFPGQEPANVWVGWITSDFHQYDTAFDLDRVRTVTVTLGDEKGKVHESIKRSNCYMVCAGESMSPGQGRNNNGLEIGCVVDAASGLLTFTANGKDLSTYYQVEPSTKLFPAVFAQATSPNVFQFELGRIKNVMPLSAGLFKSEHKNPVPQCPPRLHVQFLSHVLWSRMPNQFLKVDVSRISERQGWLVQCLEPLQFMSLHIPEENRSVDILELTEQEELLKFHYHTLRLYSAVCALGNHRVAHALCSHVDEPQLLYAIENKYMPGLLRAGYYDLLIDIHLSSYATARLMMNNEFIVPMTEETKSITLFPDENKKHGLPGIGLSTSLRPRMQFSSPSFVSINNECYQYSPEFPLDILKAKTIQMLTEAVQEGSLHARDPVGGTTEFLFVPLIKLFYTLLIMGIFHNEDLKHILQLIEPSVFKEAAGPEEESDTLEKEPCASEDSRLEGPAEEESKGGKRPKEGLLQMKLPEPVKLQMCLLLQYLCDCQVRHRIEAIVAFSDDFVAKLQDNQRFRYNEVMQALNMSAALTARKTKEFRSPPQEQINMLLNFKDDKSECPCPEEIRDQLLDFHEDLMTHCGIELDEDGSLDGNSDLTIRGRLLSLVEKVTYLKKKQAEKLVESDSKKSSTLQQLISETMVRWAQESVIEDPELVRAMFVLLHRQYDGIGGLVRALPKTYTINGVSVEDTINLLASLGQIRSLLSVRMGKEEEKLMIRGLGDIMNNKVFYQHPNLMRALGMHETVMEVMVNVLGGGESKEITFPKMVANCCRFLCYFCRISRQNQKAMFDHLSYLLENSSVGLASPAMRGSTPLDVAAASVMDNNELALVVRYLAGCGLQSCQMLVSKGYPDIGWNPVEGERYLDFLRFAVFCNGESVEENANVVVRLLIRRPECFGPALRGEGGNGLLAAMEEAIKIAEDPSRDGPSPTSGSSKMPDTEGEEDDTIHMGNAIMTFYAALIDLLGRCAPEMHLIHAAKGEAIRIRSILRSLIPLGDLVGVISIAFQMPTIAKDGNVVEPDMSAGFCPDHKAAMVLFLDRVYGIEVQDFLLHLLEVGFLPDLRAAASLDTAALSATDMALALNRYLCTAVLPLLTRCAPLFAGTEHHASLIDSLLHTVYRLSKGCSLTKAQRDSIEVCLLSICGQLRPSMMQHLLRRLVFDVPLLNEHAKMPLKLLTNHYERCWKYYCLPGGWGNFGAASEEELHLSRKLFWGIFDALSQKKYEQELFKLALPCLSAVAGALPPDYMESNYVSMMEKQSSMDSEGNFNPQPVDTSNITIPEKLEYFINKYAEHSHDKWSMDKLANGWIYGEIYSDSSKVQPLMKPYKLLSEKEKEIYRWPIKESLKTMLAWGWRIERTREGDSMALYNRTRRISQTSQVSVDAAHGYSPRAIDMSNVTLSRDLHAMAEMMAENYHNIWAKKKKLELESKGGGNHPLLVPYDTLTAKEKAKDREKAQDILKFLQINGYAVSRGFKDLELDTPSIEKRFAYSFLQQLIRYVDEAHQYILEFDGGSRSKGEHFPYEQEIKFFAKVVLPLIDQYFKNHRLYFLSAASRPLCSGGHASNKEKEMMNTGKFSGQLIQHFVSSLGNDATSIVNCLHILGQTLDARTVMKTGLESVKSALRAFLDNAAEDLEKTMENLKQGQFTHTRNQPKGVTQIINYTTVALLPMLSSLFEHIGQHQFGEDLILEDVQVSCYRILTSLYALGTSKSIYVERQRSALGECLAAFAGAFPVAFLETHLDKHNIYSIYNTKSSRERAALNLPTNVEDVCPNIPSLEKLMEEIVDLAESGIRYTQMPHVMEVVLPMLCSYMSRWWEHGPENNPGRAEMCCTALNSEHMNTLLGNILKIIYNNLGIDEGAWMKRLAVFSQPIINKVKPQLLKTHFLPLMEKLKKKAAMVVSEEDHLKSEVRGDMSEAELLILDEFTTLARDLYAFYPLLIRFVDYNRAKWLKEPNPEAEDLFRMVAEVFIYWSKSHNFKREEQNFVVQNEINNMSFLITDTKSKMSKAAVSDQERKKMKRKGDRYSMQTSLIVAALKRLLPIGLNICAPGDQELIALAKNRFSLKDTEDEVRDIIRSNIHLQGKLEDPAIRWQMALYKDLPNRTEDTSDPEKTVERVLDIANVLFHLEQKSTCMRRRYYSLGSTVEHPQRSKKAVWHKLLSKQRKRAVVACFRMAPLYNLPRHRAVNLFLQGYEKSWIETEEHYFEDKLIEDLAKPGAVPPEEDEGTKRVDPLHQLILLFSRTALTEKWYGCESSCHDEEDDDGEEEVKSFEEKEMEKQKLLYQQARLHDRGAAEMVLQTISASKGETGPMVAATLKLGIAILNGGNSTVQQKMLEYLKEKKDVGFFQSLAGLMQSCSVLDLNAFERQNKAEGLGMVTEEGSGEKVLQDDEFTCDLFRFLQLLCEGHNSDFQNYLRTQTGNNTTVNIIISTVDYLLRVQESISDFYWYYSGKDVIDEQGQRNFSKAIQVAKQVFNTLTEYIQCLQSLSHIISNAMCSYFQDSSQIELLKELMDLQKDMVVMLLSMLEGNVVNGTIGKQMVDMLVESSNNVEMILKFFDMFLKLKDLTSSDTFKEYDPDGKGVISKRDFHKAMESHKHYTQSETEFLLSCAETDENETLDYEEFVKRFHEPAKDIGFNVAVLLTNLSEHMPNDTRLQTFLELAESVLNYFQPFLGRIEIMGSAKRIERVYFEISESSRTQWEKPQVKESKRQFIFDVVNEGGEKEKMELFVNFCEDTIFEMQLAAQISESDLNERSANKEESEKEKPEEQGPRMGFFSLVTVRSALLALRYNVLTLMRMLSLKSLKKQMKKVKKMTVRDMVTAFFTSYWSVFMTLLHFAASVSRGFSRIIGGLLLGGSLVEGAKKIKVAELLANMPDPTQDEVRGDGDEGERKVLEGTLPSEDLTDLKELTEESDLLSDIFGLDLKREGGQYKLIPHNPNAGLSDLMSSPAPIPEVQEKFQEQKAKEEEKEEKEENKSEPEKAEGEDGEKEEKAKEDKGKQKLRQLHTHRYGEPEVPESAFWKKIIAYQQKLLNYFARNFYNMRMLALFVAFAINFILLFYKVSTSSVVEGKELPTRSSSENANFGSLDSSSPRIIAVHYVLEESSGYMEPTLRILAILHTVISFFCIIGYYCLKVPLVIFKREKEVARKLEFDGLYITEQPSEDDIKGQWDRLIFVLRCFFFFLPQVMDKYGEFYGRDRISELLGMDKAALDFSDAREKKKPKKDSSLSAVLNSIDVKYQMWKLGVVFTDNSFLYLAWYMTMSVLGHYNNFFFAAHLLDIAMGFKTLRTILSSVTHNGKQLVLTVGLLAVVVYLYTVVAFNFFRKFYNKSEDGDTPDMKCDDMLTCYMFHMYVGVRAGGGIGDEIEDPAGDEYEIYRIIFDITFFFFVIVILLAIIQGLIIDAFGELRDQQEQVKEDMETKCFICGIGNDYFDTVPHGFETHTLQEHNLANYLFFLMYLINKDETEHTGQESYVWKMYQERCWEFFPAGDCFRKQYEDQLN

Compound: CCCCC[C@@H]1OC(=O)[C@@H](C)N(C)C(=O)[C@H](CCCCC)OC(=O)[C@@H](C)N(C)C(=O)[C@H](CCCCC)OC(=O)[C@@H](C)N(C)C1=O (single isomer, unassigned) [ent-B1, ent-verticilide B1]
- IC50 [1]: 1.93 µM
- maximal inhibition of [3H]ryanodine binding ([1]; incomplete maximal inhibition vs DMSO): approximately 30%
- clinical observation during the PK study ([2]; CD1 mice, up to 480 min): no abnormality
- time of peak plasma concentration ([2]; mice, plasma): 10 min
- elimination half-life (t1/2) ([2]; mice, plasma, mean): 0.757 h
- QRS width [3]: No changes
- heart rate [3]: No changes
- stability in plasma [4]: stable
- lipophilicity relative to ent-1 [5]: loss of lipophilicity

Compound: ent-(+)-verticilide [ent-1]
- IC50 [6]: 0.1 µM
- IC50 [7]: 0.1 µM
- half-life (t1/2) [8]: 6.92 h
- VT incidence ([9]; 30 mg/kg, same arrhythmia induction protocol): ~35%
- antiarrhythmic efficacy in vivo ([9]; single dose study at 3 and 30 mg/kg i.p.): had antiarrhythmic efficacy

Compound: verticilide B1
- activity against RyR2 [10]: not active
- activity against insect RyR [11]: not active
